Measured values taken from PMC5218480 (PLoS ONE, 2017).

Tested on: MV-4-11 cells
Assay: Gene expression microarray analysis (Affymetrix PrimeView) and GSEA
Type: cell-based, human
Parameters: RFU PODN (11730768_x_at) / Fold change /veh PODN (11730768_x_at) / RFU LINC00158 (11744669_a_at) / Fold change /veh LINC00158 (11744669_a_at) / RFU DUSP10 (11751237_a_at) / Fold change /veh DUSP10 (11751237_a_at) / RFU ID3 (11757404_x_at) / Fold change /veh ID3 (11757404_x_at) / RFU PLEKHG5 (11737974_s_at) / Fold change /veh PLEKHG5 (11737974_s_at) / RFU LRRC4B (11730491_at) / Fold change /veh LRRC4B (11730491_at) / RFU GIMAP4 (11747438_a_at) / Fold change /veh GIMAP4 (11747438_a_at) / RFU KRT8 (11758183_x_at) / Fold change /veh KRT8 (11758183_x_at) / RFU CNN1 (11734310_a_at) / Fold change /veh CNN1 (11734310_a_at) / RFU VPS37D (11726825_at) / Fold change /veh VPS37D (11726825_at) / RFU C10orf10 (11716522_x_at) / Fold change /veh C10orf10 (11716522_x_at) / RFU KIR2DL2 /// KIR2DL4 /// KIR2DL5A /// KIR2DL5B /// KIR2DS1 /// KIR2DS2 /// KIR2DS3 /// KIR2DS4 /// KIR3DL3 /// KIR3DL3 /// KIR3DS1 (11738374_at) / Fold change /veh KIR2DL2 /// KIR2DL4 /// KIR2DL5A /// KIR2DL5B /// KIR2DS1 /// KIR2DS2 /// KIR2DS3 /// KIR2DS4 /// KIR3DL3 /// KIR3DL3 /// KIR3DS1 (11738374_at) / RFU C1QL1 (11718748_at) / Fold change /veh C1QL1 (11718748_at) / RFU TMPRSS4 (11747572_a_at) / Fold change /veh TMPRSS4 (11747572_a_at) / RFU HAMP (11756126_x_at) / Fold change /veh HAMP (11756126_x_at) / RFU RNFT2 (11725882_a_at) / Fold change /veh RNFT2 (11725882_a_at) / RFU NR4A2 (11747474_a_at) / Fold change /veh NR4A2 (11747474_a_at) / RFU ABCC12 (11746883_a_at) / Fold change /veh ABCC12 (11746883_a_at) / RFU TMEM136 (11760407_x_at) / Fold change /veh TMEM136 (11760407_x_at) / RFU CLDN22 /// WWC2 (11732394_at) / Fold change /veh CLDN22 /// WWC2 (11732394_at) / RFU HLA-DPB1 (11760878_x_at) / Fold change /veh HLA-DPB1 (11760878_x_at) / RFU SPINT1 (11716480_a_at) / Fold change /veh SPINT1 (11716480_a_at) / RFU GAP43 (11754022_s_at) / Fold change /veh GAP43 (11754022_s_at) / RFU A4GNT (11735810_at) / Fold change /veh A4GNT (11735810_at) / RFU PRB3 (11715151_x_at) / Fold change /veh PRB3 (11715151_x_at) / RFU TUBB4B (11761932_at) / Fold change /veh TUBB4B (11761932_at) / RFU CAPN14 (11732068_a_at) / Fold change /veh CAPN14 (11732068_a_at) / RFU TMCC2 (11721928_a_at) / Fold change /veh TMCC2 (11721928_a_at) / RFU IRGQ (11745062_a_at) / Fold change /veh IRGQ (11745062_a_at) / RFU FAM174B (11720279_a_at) / Fold change /veh FAM174B (11720279_a_at) / RFU TMPRSS4 (11748680_a_at) / Fold change /veh TMPRSS4 (11748680_a_at) / RFU FAM212B (11763350_a_at) / Fold change /veh FAM212B (11763350_a_at) / RFU PLEKHG5 (11743358_a_at) / Fold change /veh PLEKHG5 (11743358_a_at) / RFU ZSCAN30 (11745921_a_at) / Fold change /veh ZSCAN30 (11745921_a_at) / RFU CMKLR1 (11741424_a_at) / Fold change /veh CMKLR1 (11741424_a_at) / RFU LOC101060620 /// MAPK8IP1 (11723275_at) / Fold change /veh LOC101060620 /// MAPK8IP1 (11723275_at) / RFU SPTSSB (11747773_x_at) / Fold change /veh SPTSSB (11747773_x_at) / RFU PRSS12 (11739890_at) / Fold change /veh PRSS12 (11739890_at) / RFU BIN1 (11741810_x_at) / Fold change /veh BIN1 (11741810_x_at) / RFU WNT11 (11732464_a_at) / Fold change /veh WNT11 (11732464_a_at) / RFU C10orf10 (11716521_a_at) / Fold change /veh C10orf10 (11716521_a_at) / RFU C5orf56 (11738089_at) / Fold change /veh C5orf56 (11738089_at) / RFU CYB561 (11721691_x_at) / Fold change /veh CYB561 (11721691_x_at) / RFU ANKRD19P (11752326_a_at) / Fold change /veh ANKRD19P (11752326_a_at) / RFU OR2T12 /// OR2T33 /// OR2T8 (11738714_s_at) / Fold change /veh OR2T12 /// OR2T33 /// OR2T8 (11738714_s_at) / RFU VCAN (11748164_a_at) / Fold change /veh VCAN (11748164_a_at) / RFU JSRP1 (11732532_at) / Fold change /veh JSRP1 (11732532_at) / RFU KRTAP10-11 (11738290_x_at) / Fold change /veh KRTAP10-11 (11738290_x_at) / RFU MYO3A (11730013_a_at) / Fold change /veh MYO3A (11730013_a_at) / RFU EBF3 (11725865_a_at) / Fold change /veh EBF3 (11725865_a_at) / RFU CAMK2N1 (11719241_x_at) / Fold change /veh CAMK2N1 (11719241_x_at) / RFU C5orf56 (11738088_a_at) / Fold change /veh C5orf56 (11738088_a_at) / RFU OLFML3 (11715873_a_at) / Fold change /veh OLFML3 (11715873_a_at) / RFU LOC100653217 /// NTM (11731650_a_at) / Fold change /veh LOC100653217 /// NTM (11731650_a_at) / RFU MAPK11 (11762145_a_at) / Fold change /veh MAPK11 (11762145_a_at) / RFU FIZ1 (11724087_x_at) / Fold change /veh FIZ1 (11724087_x_at) / RFU OASL (11726364_x_at) / Fold change /veh OASL (11726364_x_at) / RFU SOX15 (11748057_x_at) / Fold change /veh SOX15 (11748057_x_at) / RFU CD79A (11719716_a_at) / Fold change /veh CD79A (11719716_a_at) / RFU HIST1H1D (11736915_at) / Fold change /veh HIST1H1D (11736915_at) / RFU CASKIN2 (11723855_a_at) / Fold change /veh CASKIN2 (11723855_a_at) / RFU LOC730098 (11760151_x_at) / Fold change /veh LOC730098 (11760151_x_at) / RFU OR4N2 (11742367_at) / Fold change /veh OR4N2 (11742367_at) / RFU PRRT2 (11749266_a_at) / Fold change /veh PRRT2 (11749266_a_at) / RFU SNX32 (11753110_a_at) / Fold change /veh SNX32 (11753110_a_at) / RFU CDHR5 (11726645_a_at) / Fold change /veh CDHR5 (11726645_a_at) / RFU RCAN1 (11760418_a_at) / Fold change /veh RCAN1 (11760418_a_at) / RFU FAM167A (11723789_a_at) / Fold change /veh FAM167A (11723789_a_at) / RFU FAM26E (11764081_at) / Fold change /veh FAM26E (11764081_at) / RFU ISYNA1 (11749810_s_at) / Fold change /veh ISYNA1 (11749810_s_at) / RFU ACY1 (11761880_at) / Fold change /veh ACY1 (11761880_at) / RFU 11764098_at / Fold change /veh 11764098_at / RFU SAMD14 (11745864_x_at) / Fold change /veh SAMD14 (11745864_x_at) / RFU NPB (11741838_a_at) / Fold change /veh NPB (11741838_a_at) / RFU TMPRSS6 (11731388_a_at) / Fold change /veh TMPRSS6 (11731388_a_at) / RFU KRTAP10-2 (11738614_at) / Fold change /veh KRTAP10-2 (11738614_at) / RFU ARHGAP8 /// PRR5-ARHGAP8 (11727945_x_at) / Fold change /veh ARHGAP8 /// PRR5-ARHGAP8 (11727945_x_at) / RFU KRTAP5-7 /// NADSYN1 (11734609_at) / Fold change /veh KRTAP5-7 /// NADSYN1 (11734609_at) / RFU RASL12 (11751679_a_at) / Fold change /veh RASL12 (11751679_a_at) / RFU CDKN2B (11736163_a_at) / Fold change /veh CDKN2B (11736163_a_at) / RFU PRF1 (11729649_at) / Fold change /veh PRF1 (11729649_at) / RFU, ZNF638 /// ZNF638-IT1 / Fold change vs veh, ZNF638 /// ZNF638-IT1 / RFU, PANK3 / Fold change vs veh, PANK3 / RFU, SH3YL1 / Fold change vs veh, SH3YL1 / RFU, ZEB2 / Fold change vs veh, ZEB2 / RFU, NRIP1 / Fold change vs veh, NRIP1 / RFU, PTTG1IP / Fold change vs veh, PTTG1IP / RFU, CAPN2 / Fold change vs veh, CAPN2 / RFU, MED14 / Fold change vs veh, MED14 / RFU, SNORA58 / Fold change vs veh, SNORA58 / RFU, C1orf63 / Fold change vs veh, C1orf63 / RFU, LRRFIP1 / Fold change vs veh, LRRFIP1 / RFU, NDUFAF7 / Fold change vs veh, NDUFAF7 / RFU, SLC12A2 / Fold change vs veh, SLC12A2 / RFU, IBTK / Fold change vs veh, IBTK / RFU, ESF1 / Fold change vs veh, ESF1 / Fold change vs veh, TMEM50B / RFU, TAOK1 / Fold change vs veh, TAOK1 / RFU, ACBD3 / Fold change vs veh, ACBD3 / RFU, TMA16 / Fold change vs veh, TMA16 / RFU, RWDD3 / Fold change vs veh, RWDD3 / RFU, BCAT1 / Fold change vs veh, BCAT1 / RFU, EDEM3 / Fold change vs veh, EDEM3 / RFU, TMEM33 / Fold change vs veh, TMEM33 / RFU, WDR75 / Fold change vs veh, WDR75 / RFU, AHCTF1 / Fold change vs veh, AHCTF1 / RFU, TFRC / Fold change vs veh, TFRC / RFU, ZDHHC17 / Fold change vs veh, ZDHHC17 / RFU, NOM1 / Fold change vs veh, NOM1 / RFU, ARL8B / Fold change vs veh, ARL8B / RFU, ZBTB11 / Fold change vs veh, ZBTB11 / RFU, TAMM41 / Fold change vs veh, TAMM41 / RFU, KIAA1704 /// LOC100996395 / Fold change vs veh, KIAA1704 /// LOC100996395 / RFU, ING1 / Fold change vs veh, ING1 / RFU, TRMT61B / Fold change vs veh, TRMT61B / RFU, FUBP3 / Fold change vs veh, FUBP3 / RFU, TP53 / Fold change vs veh, TP53 / RFU, TNKS2 / Fold change vs veh, TNKS2 / RFU, ZFP14 / Fold change vs veh, ZFP14 / RFU, ACTR2 / Fold change vs veh, ACTR2 / RFU, PPP3R1 / Fold change vs veh, PPP3R1 / RFU, PIK3R1 / Fold change vs veh, PIK3R1 / RFU, HNRNPA1 / Fold change vs veh, HNRNPA1 / RFU, RNF170 / Fold change vs veh, RNF170 / RFU, ZNF28 / Fold change vs veh, ZNF28 / RFU, RNGTT / Fold change vs veh, RNGTT / RFU, OGT / Fold change vs veh, OGT / RFU, BRD1 / Fold change vs veh, BRD1 / RFU, MARS / Fold change vs veh, MARS / RFU, ZNF655 / Fold change vs veh, ZNF655 / RFU, FAHD1 / Fold change vs veh, FAHD1 / RFU, BDP1 / Fold change vs veh, BDP1 / RFU, LRRCC1 / Fold change vs veh, LRRCC1 / RFU, ARID1A / Fold change vs veh, ARID1A / RFU, ZNF146 / Fold change vs veh, ZNF146 / RFU, ZNF330 / Fold change vs veh, ZNF330 / RFU, GPN3 / Fold change vs veh, GPN3 / RFU, C9orf123 / Fold change vs veh, C9orf123 / RFU, N4BP2L2 / Fold change vs veh, N4BP2L2 / RFU, ARFIP1 / Fold change vs veh, ARFIP1 / RFU, FAM179B / Fold change vs veh, FAM179B / RFU, BCL10 / Fold change vs veh, BCL10 / RFU, UHRF1BP1L / Fold change vs veh, UHRF1BP1L / RFU, BET1 / Fold change vs veh, BET1 / RFU, CNOT2 / Fold change vs veh, CNOT2 / RFU, ZNF268 / Fold change vs veh, ZNF268 / Fold change vs veh, ZNF507 / RFU, DGCR2 / Fold change vs veh, DGCR2 / RFU, WDSUB1 / Fold change vs veh, WDSUB1 / Fold change vs veh, HSP90B1 /// MIR3652 / RFU, ADSS / Fold change vs veh, ADSS / RFU, GK / Fold change vs veh, GK / RFU, ZNF148 / Fold change vs veh, ZNF148 / RFU, TAF9 / Fold change vs veh, TAF9 / RFU, SLC1A5 / Fold change vs veh, SLC1A5 / RFU, SLMO2 / Fold change vs veh, SLMO2 / RFU, ABCC4 / Fold change vs veh, ABCC4 / RFU, LOC101060439 /// RAP1B / Fold change vs veh, LOC101060439 /// RAP1B / RFU, RFX7 / Fold change vs veh, RFX7 / RFU, GTPBP10 / Fold change vs veh, GTPBP10 / RFU, CNEP1R1 / Fold change vs veh, CNEP1R1 / RFU, BIVM-ERCC5 /// ERCC5 / Fold change vs veh, BIVM-ERCC5 /// ERCC5 / RFU, ILF3 / Fold change vs veh, ILF3 / RFU 11762660_at / Fold change /veh 11762660_at / RFU VCAN (11757783_s_at) / Fold change /veh VCAN (11757783_s_at) / RFU DDX43 (11728927_at) / Fold change /veh DDX43 (11728927_at) / RFU KRT8 (11758188_x_at) / Fold change /veh KRT8 (11758188_x_at) / RFU NKD1 (11759106_at) / Fold change /veh NKD1 (11759106_at) / RFU SRD5A1 (11742802_a_at) / Fold change /veh SRD5A1 (11742802_a_at) / RFU TPSAB1 /// TPSB2 (11721975_s_at) / Fold change /veh TPSAB1 /// TPSB2 (11721975_s_at) / RFU GSTM3 (11746129_a_at) / Fold change /veh GSTM3 (11746129_a_at) / RFU IL23R (11737362_x_at) / Fold change /veh IL23R (11737362_x_at) / RFU TMEM51 (11727254_a_at) / Fold change /veh TMEM51 (11727254_a_at) / RFU PIWIL2 (11732686_x_at) / Fold change /veh PIWIL2 (11732686_x_at) / RFU ORM1 (11744905_x_at) / Fold change /veh ORM1 (11744905_x_at) / RFU CCDC152 (11743942_at) / Fold change /veh CCDC152 (11743942_at) / RFU ECM1 (11717891_a_at) / Fold change /veh ECM1 (11717891_a_at) / RFU IL23R (11748794_a_at) / Fold change /veh IL23R (11748794_a_at) / RFU TNFAIP8L3 (11732012_x_at) / Fold change /veh TNFAIP8L3 (11732012_x_at) / RFU MBOAT4 (11741988_at) / Fold change /veh MBOAT4 (11741988_at) / RFU 11764193_at / Fold change /veh 11764193_at / RFU TMEM53 (11763286_at) / Fold change /veh TMEM53 (11763286_at) / RFU MAGEB2 (11727129_at) / Fold change /veh MAGEB2 (11727129_at) / RFU TMEM200A (11744735_a_at) / Fold change /veh TMEM200A (11744735_a_at) / RFU CCDC152 (11751479_a_at) / Fold change /veh CCDC152 (11751479_a_at) / RFU FAM211A (11726209_a_at) / Fold change /veh FAM211A (11726209_a_at) / RFU RGS16 (11746705_a_at) / Fold change /veh RGS16 (11746705_a_at) / RFU VCAN (11755009_s_at) / Fold change /veh VCAN (11755009_s_at) / RFU RHOB (11743442_s_at) / Fold change /veh RHOB (11743442_s_at) / RFU RGS16 (11720943_a_at) / Fold change /veh RGS16 (11720943_a_at) / RFU RGS16 (11720944_at) / Fold change /veh RGS16 (11720944_at) / RFU, VPS4B / Fold change vs veh, VPS4B / RFU, CREB1 / Fold change vs veh, CREB1 / RFU, DNAJC13 / Fold change vs veh, DNAJC13 / RFU, GNAQ / Fold change vs veh, GNAQ / RFU, CDK5R1 / Fold change vs veh, CDK5R1 / RFU, ZRANB3 / Fold change vs veh, ZRANB3 / RFU, CUL4A / Fold change vs veh, CUL4A / RFU, CCNY / Fold change vs veh, CCNY / RFU, UFL1 / Fold change vs veh, UFL1 / RFU, COG3 / Fold change vs veh, COG3 / RFU, DIAPH2 / Fold change vs veh, DIAPH2 / RFU, SKA2 / Fold change vs veh, SKA2 / RFU, AFF3 / Fold change vs veh, AFF3 / RFU, LMF1 / Fold change vs veh, LMF1 / RFU, IPO11 / Fold change vs veh, IPO11 / RFU, DFFB / Fold change vs veh, DFFB / RFU, FOXP1 / Fold change vs veh, FOXP1 / RFU, CARD8 / Fold change vs veh, CARD8 / RFU, STRN3 / Fold change vs veh, STRN3 / RFU, ADK / Fold change vs veh, ADK / RFU, RASSF2 / Fold change vs veh, RASSF2 / RFU, WIPF1 / Fold change vs veh, WIPF1 / RFU, LARP1B / Fold change vs veh, LARP1B / RFU, RASA1 / Fold change vs veh, RASA1 / RFU, RB1 / Fold change vs veh, RB1 / RFU, PPFIA1 / Fold change vs veh, PPFIA1 / RFU, MAT2A / Fold change vs veh, MAT2A / RFU, CCT5 / Fold change vs veh, CCT5 / RFU, WDR92 / Fold change vs veh, WDR92 / RFU, CUX1 / Fold change vs veh, CUX1 / RFU, TTC7A / Fold change vs veh, TTC7A / RFU, TMEM135 / Fold change vs veh, TMEM135 / RFU, DEPTOR / Fold change vs veh, DEPTOR / RFU, CPM / Fold change vs veh, CPM / RFU, DNAJB6 / Fold change vs veh, DNAJB6 / RFU, CACNA2D3 / Fold change vs veh, CACNA2D3 / RFU, DTX4 / Fold change vs veh, DTX4 / RFU, TFCP2 / Fold change vs veh, TFCP2 / RFU, GMCL1 /// GMCL1P1 / Fold change vs veh, GMCL1 /// GMCL1P1 / RFU, AEBP2 / Fold change vs veh, AEBP2 / RFU, SNHG1 /// SNORD22 /// SNORD25 /// SNORD26 /// SNORD27 /// SNORD28 /// SNORD29 /// SNORD31 / Fold change vs veh, SNHG1 /// SNORD22 /// SNORD25 /// SNORD26 /// SNORD27 /// SNORD28 /// SNORD29 /// SNORD31 / Fold change (Aza/veh), C12orf56 (ProbeSet 11735607_a_at) / Fold change (ACY-1035/veh), C12orf56 (ProbeSet 11735607_a_at) / Fold change (Aza/veh), FGFR1OP (ProbeSet 11751329_s_at) / Fold change (ACY-1035/veh), FGFR1OP (ProbeSet 11751329_s_at) / Fold change (Aza/veh), VPS36 (ProbeSet 11739960_a_at) / Fold change (ACY-1035/veh), VPS36 (ProbeSet 11739960_a_at) / RFU SYPL1 (11715823_x_at) / Fold change /veh SYPL1 (11715823_x_at) / RFU IGFBP7 (11715501_s_at) / Fold change /veh IGFBP7 (11715501_s_at) / RFU REEP3 (11722064_at) / Fold change /veh REEP3 (11722064_at) / RFU IGLL1 (11728026_x_at) / Fold change /veh IGLL1 (11728026_x_at): dose or concentration left out as unconfirmed
Conditions: ProbeSet 11755436_x_at; LIST B

SMILES: Nc1ccc(-c2cccs2)cc1NC(=O)c1ccc2c(c1)cc(C1CC1)n2CCN1CCOCC1 [ACY-1035]
- RFU, ARID1A: 56.79 RFU
